Experimental data taken from PubChem BioAssay (NCI).
Values joined by “and” are separate entries in the source; they are usually repeats but may differ in a detail not shown here. Equal entries are not always repeated.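 Cells were grown in 96-well plates and exposed to each compound for 48 hours at five concentrations; endpoints were interpolated linearly between bracketing concentrations, or set to the highest concentration if not reached. At the GI50, growth is halved. TGI is the concentration that stops growth completely.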

Columns and labels:
Test in all cases: NCI-60 cell line screen, 48 h
[1] = test system: SF-295 CNS
[2] = test system: SK-MEL-5 melanoma
[3] = test system: SF-268 CNS
[4] = test system: NCI-H522 lung
[5] = test system: SNB-75 CNS
[6] = test system: IGROV1 ovarian
[7] = test system: ACHN renal
[8] = test system: DLD-1 colon
[9] = test system: MALME-3M melanoma
[10] = test system: LXFL 529 NSCLC

SMILES	TGI [1]	TGI [2]	TGI [3]	TGI [4]	TGI [5]	TGI [6]	TGI [7]	TGI [8]	TGI [9] [µM]	TGI [10]	GI50 [1] [µM]	GI50 [2] [µM]	GI50 [3] [µM]	GI50 [4] [µM]	GI50 [5] [µM]	GI50 [6] [µM]	GI50 [7] [µM]	GI50 [9] [µM]	GI50 [10] [µM]
O=C1C2c3[nH]c4ccccc4c3C3CCCCCC3C2C(=O)N1c1ccccc1 (stereo unspecified)	> 65.5 µM	> 100 µM	99.8 µM	> 100 µM	8.41 µM	72 µM	> 91.1 µM	> 100 µM	41.1	> 100 µM									
O=C(N/C(=C\c1ccccc1Cl)c1nc2ccccc2[nH]1)c1ccccc1	43.4 µM	34.2 µM	> 100 µM	72.5 µM		> 100 µM	> 100 µM	> 100 µM	74.8	> 100 µM									
CN(NC1OC(CO)C(O)C(O)C1O)c1ccccc1 (stereo unspecified)	> 100 µM	> 100 µM	> 100 µM	> 100 µM		> 100 µM	> 100 µM	> 100 µM	> 100	> 100 µM									
COc1ccc(S(=O)(=O)N[C@H](C(=O)O)c2ccccc2)cc1	> 100 µM	> 100 µM	> 100 µM		> 100 µM	> 100 µM	> 100 µM	> 100 µM	> 100	> 100 µM									
COC1OC(CBr)C(OC(=O)c2ccccc2)C(OS(=O)(=O)c2ccc(C)cc2)C1Br (stereo unspecified)	> 100 µM		> 100 µM	> 100 µM			> 100 µM		> 100	> 100 µM									
Cc1cc(=O)n(-c2c(C)cccc2Cl)c(/C=C(\O)c2ccncc2)n1	> 100 µM	> 100 µM	> 100 µM	> 100 µM	> 100 µM	> 100 µM	> 100 µM	> 100 µM	> 100	> 100 µM									
O=C1c2cccnc2C(=O)c2c1c(C(=O)NCCn1ccnc1)c1ccccn21	14 µM	2.26 µM	16.8 µM	4.67 µM	16.8 µM	14.2 µM	36 µM		2.14		2.66	1.06	2.86	1.82	3.24	3.27	2.75	0.722	
COc1cc(/C=C/C(=O)/C=C/c2cc3ccc(Cl)cc3n(Cc3ccccc3)c2=O)ccc1O	10.8 µM	3.17 µM	7.47 µM	3.5 µM	7.42 µM	4.53 µM	2.62 µM		4.64		3	1.69	2.16	1.67	2.52	1.74	1.33	1.94	
COc1ccc2nc(-c3ccccc3)cc(Nc3cccc(C(C)=O)c3)c2c1	31.6 µM	24.3 µM	8.61 µM	> 100 µM	38.4 µM	> 100 µM	22.5 µM		27.7		12.7	8.89	2.22	31.6	12.2	20.6	5.78	12.5	
Cc1nc(-c2cnc(NC(C)C)n(C)c2=O)ccc1Oc1ccnc(-c2cnn(C)c2)c1	90.3 µM	19.5 µM	> 100 µM	71.9 µM	47.7 µM	> 100 µM	> 100 µM		68.8		9.14	4.59	23	5.77	12.3	15	18.9	12.6	
C/C(=N/O)c1ccc2c(c1)/C(=N/O)c1ccccc1-2	50.4 µM	31.2 µM	> 100 µM	35.2 µM	44.2 µM	41.1 µM	46.1 µM		46		22.6	17	32.2	17.9	17.7	22.3	20.6	21.9	
CCCCCCCCCCCCCCCCCCOc1ccccc1CC(=O)OCC[N+](CC)(CC)CC	5.11 µM	1.75 µM	6.32 µM	6.84 µM	4.23 µM	1.97 µM	11.3 µM		3.77		1.27	0.942	1.48	1.53	0.968	0.923	4.39	1.31	
CCOc1ccc2c(c1)CN(Cc1ccc(Cl)cc1)CO2	27.9 µM	28.9 µM	> 100 µM	34 µM	45.8 µM	63.7 µM	55 µM		29.5		13	15.2	28.1	15.9	15	23	19.3	14.8	
CCN(CC)CC(=O)NC1c2ccccc2Oc2c(C)cccc21 (stereo unspecified)		> 100 µM	> 100 µM		> 100 µM	> 100 µM	> 100 µM	> 100 µM		> 100 µM									
CC(=O)OC(C)(C)/C=C/C(=O)[C@](C)(O)[C@H]1[C@H](O)C[C@@]2(C)[C@@H]3CC=C4[C@@H](C=C(O)C(=O)C4(C)C)[C@]3(C)C(=O)C[C@]12C				196 nM [middle of 4 runs]	42.7 nM [middle of 4 runs]		0.25 µM and 0.0794 µM	4.25 µM and 4.43 µM and 2.19 µM		0.305 µM and 0.385 µM							0.0306		0.018
CCOc1ccc(OCC)c([P+](c2ccccc2)(c2ccccc2)c2ccccc2)c1	6.38 µM	1.14 µM	24.4 µM		10.6 µM	13.3 µM	10.5 µM	16 µM	23.3	10.4 µM									
CCCCN=C(N)c1ccc(N2CCCN(c3ccc(C(N)=NCCCC)cc3)CC2)cc1	57.6 µM	21.7 µM	> 100 µM	> 100 µM	> 100 µM	> 85.9 µM	> 100 µM		26.2		6.39	5.04	8.53	11.8	6.29	24.5	> 21.9	1	
CCN(CC)c1ccc(C2NC(=O)c3ccccc3N2)cc1 (stereo unspecified)	> 86.3 µM	> 100 µM	> 100 µM	> 100 µM	> 20.3 µM	> 100 µM	> 100 µM		> 100										

SMILES	TGI [1]	TGI [2]	TGI [3]	TGI [4]	TGI [5]	TGI [6]	TGI [7]	TGI [8]	TGI [9] [µM]	TGI [10]	GI50 [1] [µM]	GI50 [2] [µM]	GI50 [3] [µM]	GI50 [4] [µM]	GI50 [5] [µM]	GI50 [6] [µM]	GI50 [7] [µM]	GI50 [9] [µM]	GI50 [10] [µM]
COc1ccc2nc3cc([N+](=O)[O-])ccc3c(NNc3ccccc3)c2c1	25.2 µM and > 100 µM	27.3 µM and 40.7 µM	30.8 µM and > 100 µM	18.5 µM and 50.9 µM	35.7 µM and > 100 µM	68.6 µM and 27.9 µM	33.1 µM and > 83.3 µM		43.4		6.73	13.2	7.35	2.4	15.6	15.4	14.4		
O=C1c2ccccc2C(=O)c2c1ccc1c(=O)n(-c3ccccc3C(F)(F)F)nnc21	7.02 µM	3.05 µM	> 100 µM	5.71 µM	15.5 µM	3.31 µM	> 100 µM		2.54		2.59	1.67	2.74	1.81	1.56	1.33	2.7	1.27	
O=C(CO[N+](=O)[O-])OC/C=C/c1ccccc1	> 100 µM		> 100 µM	> 100 µM	> 100 µM	> 100 µM	> 100 µM	> 100 µM	> 100	> 100 µM									
C(=Nc1cnc2ccccc2c1)c1ccc2ccccc2n1	> 100 µM	> 100 µM	> 100 µM	> 100 µM	> 100 µM	> 100 µM	> 100 µM		> 100										
OCc1ccc(N2CCc3cc(F)ccc3C2)cc1Cl	13.9 µM	20.4 µM	29.9 µM	25.9 µM	28.6 µM	0.0941 µM	24.4 µM		31.8		0.0449	3.95	15.2	12.7	15.1	0.017	11.8	16.6	
CC1CCC(=O)C(C(O)CC2CC(=O)N(c3ccccc3)C(=O)C2)C1 (stereo unspecified)	> 100 µM		> 100 µM	> 100 µM	> 100 µM	> 100 µM	> 100 µM	> 100 µM	> 100	> 100 µM									
COc1ccc(C(=O)O[C@H]2[C@H](O[C@H]3[C@@H](O)COC(O[C@H]4C[C@H]5[C@@H]6CC=C7C[C@@H](O)CC[C@]7(C)[C@H]6CC[C@]5(C)[C@H]4[C@H](C)C(=O)CCC(C)C)[C@@H]3OC(C)=O)OC[C@@H](O)[C@@H]2O)c(C)c1 (stereo partly specified)	< 0.01 µM	0.0141 µM	3.4 µM	0.607 µM	13.2 µM	48.9 µM	38.9 µM		11.6		< 0.01	< 0.01	< 0.01	0.0114	< 0.01	0.0723	0.0312	0.0127	
CN(C)Cc1ccc(C(C)(C)C)cc1-c1cc(C(C)(C)C)ccc1CN(C)C	> 100 µM	> 100 µM	> 100 µM	> 100 µM	> 100 µM	> 100 µM	> 100 µM		79.6										
CN(C)C=NC1CCC(C(C)(C)C)CC1 (stereo unspecified)	31.2 µM	31 µM	96 µM	31.8 µM	34.9 µM	37.9 µM	43.8 µM		34.9										
O=C1C=CC(=Nc2cccc3c(N=C4C=CC(=O)O4)cccc23)O1	> 100 µM	> 100 µM	> 100 µM	34.3 µM	> 100 µM	> 100 µM	78.5 µM		42.8										
COc1cccc(/C=C/c2ccnc3ccccc23)c1OC	> 10 µM	> 10 µM	> 10 µM	> 10 µM	> 10 µM	> 10 µM	> 10 µM		> 10										
C[C@@H](NC(=O)c1ncnc(N)c1Cl)c1ncc(C(=O)Nc2cc(C(F)(F)F)c(Cl)cn2)s1	34.7 µM	24.1 µM	> 71.6 µM	34.3 µM	94.4 µM	39.6 µM	> 100 µM		0.624		13.6	8.91	26.8	13.5	23.1	10.8	15.7	0.135	
COc1ccc(Cl)cc1Nc1nc(C(F)(F)F)ccc1C(=O)N/N=C/c1cccnc1	9.52 µM	65.3 µM	61.5 µM	74.7 µM	49.7 µM	> 100 µM	> 100 µM		> 100		1.28	2.64	2.52	2.47	3.87	4.33	4.04	2.55	
COc1ccc(-c2ccccc2)c2[nH]c3c(c12)CCNC3=O	> 100 µM	> 100 µM	> 100 µM	> 100 µM	> 100 µM	> 100 µM		> 100 µM	> 100	> 100 µM									
Cc1ccc(Cl)cc1NC(=O)c1cc2ccccc2cc1O	3.57 µM	0.824 µM	> 32.6 µM	0.719 µM	15.3 µM	3.95 µM	2.8 µM		0.692		1.14	0.277	0.426	0.231	0.52	0.189	0.351	0.211	
Cc1ccc(/C=C/c2c(C(=O)/C=C/c3ccc(Cl)cc3)c(C)nc3ccccc23)cc1	3.23 µM	3 µM	5.85 µM	5.94 µM	3.24 µM	2.38 µM	2.88 µM		3.17		1.74	1.62	2.15	1.86	1.51	1.03	1.54	1.74	
Cc1ccc(NC(=O)Nc2c(Cl)cccc2Cl)cn1	> 100 µM	> 100 µM	> 100 µM	44 µM	> 100 µM	> 100 µM	> 100 µM		> 100		5.49	5.06	14.5	12.5	5.88	8.14	51.5	8.57	
COC1[C@H](NC(=O)OC(C)(C)C)C(=O)N1Cc1ccccc1 (stereo partly specified)	> 100 µM	> 100 µM	> 100 µM		> 100 µM	> 100 µM	> 100 µM	> 100 µM	> 100	> 100 µM									
